Our source for the FP % inhibition, IC50 and inhibition values is US20250008959A1, “HERBICIDES AND USE THEREOF” (Projini Agchem LTD, priority 2021, published 2025).

For assay [1], the target named is T1, OASS-SAT complex (AtOASS with SAT-derived peptide) (Arabidopsis thaliana, UniProt P47998).
T1 construct: GST (N, cleaved yes); made in house; host or cells: E. coli Rosetta (DE3)
The experiment in a line: Fluorescence polarization (FP) competition with FITC-labeled SAT-derived peptide bound to OASS. The format is binding. As to conditions: competition with FITC-SAT peptide 200 nM, OASS 2.2 μM; for IC50: single site inhibition model. The method, then: Molecules were also tested for their ability to compete with the OASS binding to the SAT-derived peptide via a fluorescence polarization (FP) competition assay wherein the N-terminus labeled peptide was incubated with the AtOASS (see Examples section below). High FP values correspond to the peptide-bound state (low molecule concentrations) and low FP values correspond to the peptide-free state (low FP values). To extract the IC50, the FP data were fitted to a single site inhibition model in PRISM by GraphPad Software. The corresponding IC50 values were extracted, whereas low IC50 values correspond to molecule that better competes with the peptide binding to AtOASS. Fluorescence polarization (FP) measurements were made on samples arrayed in 96-well plates by using BioTek H1 Synergy instrument equipped with FP module. […] The peptide in a concentration of 200 nM was incubated with OASS at a concentration of 2.2 μM in each well. Variable concentrations of each molecule starting from 100 μM down to 0.048 μM were added to evaluate the ability of each molecule to compete off the FITC labeled peptide bound to OASS. Fluorescence experiments were executed with an Em/Exc wavelengths of 480/520 nm. All measurements were done in triplicate. Experimental polarization data from simple and competitive binding experiments were fitted using GraphPad Prism, with error bars representing SD. Molecules were also tested for their ability to compete with the OASS binding to the SAT-derived peptide via a fluorescence polarization (FP) competition assay. The N-terminus labeled peptide was incubated with the AtOASS in each of the wells in a 96-well plate. Various concentrations of the molecules were added and the FP values were recorded. High FP values correspond to the peptide-bound state (low molecule concentrations) and low FP values correspond to the peptide-free state (low FP values). To extract the IC50, the FP data were fitted to a single site inhibition model in graphpad prism. The corresponding IC50 values were extracted. Low IC50 values correspond to molecule that better competes with the peptide binding to AtOASS.
On the technique in general: In fluorescence polarisation assays a small probe gives low polarisation when free and higher when bound to something large.

For assay [2], the system named is Arabidopsis thaliana. The experiment in a line: Root elongation in plates (in planta root elongation assay). The format is in vivo. The note with it: 168 h, A. thaliana on MS medium plates, 7 days, read-out: Root-growth inhibition %. As to the method:
6-well plates were prepared in a biological hood with sterile half Murashige and Skoog mineral medium (MS; Duchefa, Haarlem, Netherlands) containing 1% sucrose (w/v), pH 5.8. Tested molecules were dissolved in 50 mM DMSO and diluted to various concentrations 1,000-fold greater than the final desired concentration the MS medium maintaining a final concentration of 0.1% DMSO. MS medium with 0.1% DMSO was used as a negative control. After 7 days the plates were scanned and the root length was calculated using the imageJ software. […] Further sterilization was done by washing the seeds with 50% hypochlorite and 0.2% Triton x-100 for 10 minutes followed by five cycles of washing with sterile water. Six seeds were placed in each well, and the plates were covered and sealed with parafilm. Plates were placed vertically at 4° C. for two days and then transferred to a growth chamber for seven days (22-24° C.) at day/light cycles of 16/8 hours. Following the in vitro evaluation, selected molecules were tested for their ability to inhibit A. thaliana root elongation on agar plates. Seeds were plated on medium containing the molecules dissolved in the indicated concentrations and root length was measured after 6 or 7 days when the root in the non-treated plate reached the end of the well.

T1 sequence (P47998 whole entry, one chain of several): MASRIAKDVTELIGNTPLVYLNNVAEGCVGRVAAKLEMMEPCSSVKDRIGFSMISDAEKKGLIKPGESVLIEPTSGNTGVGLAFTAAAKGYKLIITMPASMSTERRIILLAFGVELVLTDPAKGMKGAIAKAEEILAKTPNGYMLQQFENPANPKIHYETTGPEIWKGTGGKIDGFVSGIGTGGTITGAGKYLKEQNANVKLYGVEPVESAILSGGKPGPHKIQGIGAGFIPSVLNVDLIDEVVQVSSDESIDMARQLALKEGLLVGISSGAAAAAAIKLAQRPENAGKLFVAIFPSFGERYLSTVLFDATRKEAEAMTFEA

One may read the IC50 as the midpoint of a concentration-inhibition curve. What is called inhibition is the change of the read-out against control, counted positive when it falls. For the compound `Cc1cn(-c2ccccc2)nc1NS(=O)(=O)c1cc(C(=O)O)cc2c1CCC2` [PJL-2], in assay [1], the FP % inhibition is listed as 11% and the IC50 was 236 µM. Further, the inhibition at 50 µM in assay [2] amounted to 70%.

Turning to `O=C(O)c1cc(F)ccc1NS(=O)(=O)c1cnn(-c2ccccc2F)c1` [PJL-5], in assay [1], the FP % inhibition is reported as 16% and the IC50 is 148 µM. Also, the inhibition at 50 µM in assay [2] turned out to be 56%.

Take `COc1ccc(NS(=O)(=O)c2cc(C(=O)O)cc3c2CCC3)cc1Cl` [PJL-21]: in assay [1], the FP % inhibition is recorded as 14% and the IC50 stood at 149 µM. The inhibition at 50 µM in assay [2] was 0%.

`Cc1cc2cc(NS(=O)(=O)c3cc(C(=O)O)cc4c3CCC4)ccc2[nH]1` [PJL-22]: in assay [1], the FP % inhibition came to 13% and the IC50 was 206 µM. Further, the inhibition at 50 µM in assay [2] is 0%.

Consider `O=C(O)c1cc(NS(=S)(=S)c2cnc(-c3ccc(F)cc3)s2)c(F)cc1F` [PJL-27], for which, in assay [1], the FP % inhibition was determined as 11% and the IC50 was found to be 188 µM. For the same compound, the inhibition at 50 µM in assay [2] stood at 25%.

In the case of `CC(C)(C)NC(=O)c1cccc(NC(=O)c2ccccc2-c2ccccc2C(=O)O)c1` [PJL-59], in assay [1], the FP % inhibition is on record as 19% and the IC50 worked out at 58 µM. For the same compound, the inhibition at 50 µM in assay [2] is 6%.

For `O=C(O)c1cc2c(c(S(=O)(=O)Nc3cccc(C(=O)Nc4ccccn4)c3)c1)CCC2` [PJL-70], the FP % inhibition in assay [1] was found to be 15%. The inhibition at 50 µM in assay [2] worked out at 0%.

As for `CN(C)c1ncn(-c2cccc(NS(=O)(=O)c3cc(C(=O)O)cc4c3CCC4)c2)n1` [PJL-74], in assay [1], the FP % inhibition is on record as 26% and the IC50 came to 22 µM. Moreover, the inhibition at 50 µM in assay [2] is 9%.

Regarding `O=C(O)c1ccc(O)cc1NS(=O)(=O)c1cnc(-c2ccccc2)o1` [PJL-82], in assay [1], the FP % inhibition was determined as 11% and the half-maximal inhibitory concentration (IC50) was found to be 150 µM. Further, the inhibition at 50 µM in assay [2] is 0%.

On to `COc1ccccc1-n1cc(S(=O)(=O)Nc2ccc(F)cc2C(=O)O)cn1` [PJL-85], for which, in assay [1], the FP % inhibition stood at 15% and the IC50 is 111 µM. Besides, the inhibition at 50 µM in assay [2] is 0%.

Regarding `Cc1ccnc(-n2cc(S(=O)(=O)Nc3ccc(F)cc3C(=O)O)cn2)c1` [PJL-86], in assay [1], the FP % inhibition is on record as 36% and the IC50 is 20 µM. Moreover, the inhibition at 50 µM in assay [2] was 0%.

As to `CCn1nnc(-c2ccc(O)c(NC(=O)Cc3ccccc3C(=O)O)c2)n1` [PJL-88], in assay [1], the FP % inhibition is reported as 10% and the IC50 is 80 µM. The inhibition at 50 µM in assay [2] turned out to be 0%.

On to `O=C(Cc1ccccc1C(=O)O)Nc1cc(C(=O)Nc2cccnc2)ccc1F` [PJL-91], for which, in assay [1], the FP % inhibition is 13% and the IC50 was determined as 55 µM.

Turning to `CCc1ccc(C(=O)O)c(NS(=O)(=O)c2cnc(-c3ccc(F)cc3)s2)c1` [PJL-122], the FP % inhibition in assay [1] was determined as 25%.

As for `COc1cc(NS(=O)(=O)c2cnc(-c3ccc(F)cc3)s2)c(C(=O)O)cc1F` [PJL-123], in assay [1], the FP % inhibition was 16%.

With `COc1ccc(-c2csc(NC(=O)c3ccc(C)cc3-c3ccccc3C(=O)O)n2)cc1` [PJL-125], in assay [1], the FP % inhibition is listed as 56% and the IC50 came to 3.4 µM.

For `COc1ccc(-c2csc(NC(=O)c3cccc(C)c3-c3ccccc3C(=O)O)n2)cc1` [PJL-128], in assay [1], the FP % inhibition was determined as 41% and the IC50 came out at 18.5 µM.

Regarding `CC(=O)Nc1ccc(C(=O)Nc2nc(-c3ccc(Cl)cc3Cl)cs2)c(-c2ccccc2C(=O)O)c1` [PJL-129], in assay [1], the FP % inhibition was 43% and the IC50 is 11 µM.

Regarding `O=C(O)c1ccccc1-c1cc(CO)ccc1C(=O)Nc1nc(-c2ccc(Cl)cc2Cl)cs1` [PJL-131], in assay [1], the FP % inhibition came to 42% and the IC50 is 9.3 µM.

On to `O=C(O)c1ccccc1-c1ccc(O)cc1C(=O)Nc1nc(-c2ccc(Cl)cc2Cl)cs1` [PJL-132], for which, in assay [1], the FP % inhibition turned out to be 51% and the IC50 was found to be 4.5 µM.

For `COc1ccc(C(=O)O)c(-c2cc(N)ccc2C(=O)Nc2nc(-c3ccc(Cl)cc3Cl)cs2)c1` [PJL-133], in assay [1], the FP % inhibition is 48% and the IC50 stood at 7.6 µM.
